The text below walks through data of US9580430B2, “9H-pyrimido[4,5-B]indoles and related analogs as BET bromodomain inhibitors” (THE REGENTS OF THE UNIVERSITY OF MICHIGAN, priority 2014, dated 2017).

Structures are written as SMILES.

One assay has as its target T1, recombinant BRD4 BD1 (Homo sapiens, UniProt O60885).
T1 construct: for recombinant BRD4 BD1 and BRD4 BD2 proteins
The assay can be described thus: Competitive fluorescence-polarization (FP) binding assay, BRD4 BD1. The conditions noted are these: FP competitive binding, BRD4 BD1; for IC50: read-out: Binding affinities (FP) BRD4BD1 IC50; for Ki: read-out: Binding affinities (FP) BRD4BD1 Ki. An outline of the steps:
(§1)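 Buffer: 100 mM potassium phosphate, pH 6.5, 0.01% Triton X-100; compounds added in buffer with 40% ethylene glycol to preformed complex of fluorescent probe with BRD4 BD1 (10 nM final) or BD2 (6 nM final). After 30 min at room temperature, polarization read. IC50 from nonlinear fits of competition curves, with Ki.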

The target of another assay is T2, recombinant BRD4 BD2 (Homo sapiens, UniProt O60885).
T2 construct: for recombinant BRD4 BD1 and BRD4 BD2 proteins
The assay can be described thus: Competitive fluorescence-polarization (FP) binding assay, BRD4 BD2. The following applies: FP competitive binding, BRD4 BD2; for IC50: read-out: Binding affinities (FP) BRD4BD2 IC50; for Ki: read-out: Binding affinities (FP) BRD4BD2 Ki. An outline of the steps:
as §1

The test system of a further assay is MDA-MB-436. As to the kind of experiment: Cell growth inhibition, MDA-MB-436 breast cancer cells (WST-8). The conditions noted are these: Homo sapiens, 96 h; MDA-MB-436 cells, 4 days; read-out: Cellular data MDA-MB-436 IC50. It is filed as cell-based. An outline of the steps:
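IC50 was computed from WST-8-based cell counting in MDA-MB-436 cells, with absorbance read at 450 nm.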
(Tetrazolium dyes change colour on reduction, which living cells bring about.)

The next assay has as its system LNCaP. As to the kind of experiment: Cell growth inhibition, LNCaP prostate cancer cells (Cell-Titer GLO). It is filed as cell-based. The following applies: Homo sapiens, read-out: Cellular data LNCaP IC50.

Turning to `COc1nc2c(cc1-c1c(C)noc1C)[nH]c1nc(C)nc(Nc3cc(C4CC4)nn3C)c12` [compound 322, N-(3-cyclopropyl-1-methyl-1H-pyrazol-5-yl)-7-(3,5-dimethylisoxazol-4-yl)-6-methoxy-2-methyl-9H-pyrido[2′,3′:4,5]pyrrolo[2,3-d] pyrimidin-4-amine], the IC50 (usually the concentration that inhibits the measured activity by half) was determined as 0.199 µM on recombinant BRD4 BD1, 0.214 µM on recombinant BRD4 BD2, 0.646 µM in the assay on MDA-MB-436 and 0.674 µM in the assay with LNCaP. Also, the Ki – broadly, the dissociation constant of the complex between target and ligand, obtained from inhibition or displacement – at recombinant BRD4 BD1 worked out at 0.068 µM; at recombinant BRD4 BD2, 0.067 µM.

Turning to `COc1cc2c(cc1-c1c(C)noc1C)[nH]c1nc(CS(C)(=O)=O)nc(Nc3cc(C4CC4)nn3C)c12` [Cpd. No. 289, N-(3-cyclopropyl-1-methyl-1H-pyrazol-5-yl)-7-(3,5-dimethylisoxazol-4-yl)-6-methoxy-2-((methylsulfonyl)methyl)-9H-pyrimido[4,5-b]indol-4-amine], the IC50 was determined as 0.0024 µM at recombinant BRD4 BD1, 0.0022 µM on recombinant BRD4 BD2, 0.057 µM with MDA-MB-436 and 0.13 µM in the assay on LNCaP. Also, the Ki on recombinant BRD4 BD1 and on recombinant BRD4 BD2 was below 0.001 µM throughout.

As for `COc1cc2c(cc1-c1c(C)noc1C)[nH]c1nc(C)nc(Nc3cc(C4CC4)nn3C[C@H](O)CO)c12` [Cpd. No. 281], the IC50 at recombinant BRD4 BD1 came out at 0.0061 µM; on recombinant BRD4 BD2 it was 0.0036 µM; in the assay with MDA-MB-436, 0.351 µM; in the assay with LNCaP, 0.116 µM. The inhibition constant (Ki) was determined as 0.002 µM on recombinant BRD4 BD1 and 0.0057 µM on recombinant BRD4 BD2.

As to `COc1cc2c([nH]c3ccnc(Nc4cc(C5CC5)nn4C)c32)c(F)c1-c1c(C)noc1C` [Cpd. No. 309, N-(3-cyclopropyl-1-methyl-1H-pyrazol-5-yl)-7-(3,5-dimethylisoxazol-4-yl)-6-fluoro-8-methoxy-5H-pyrido[4,3-b]indol-1-amine], the IC50 was determined as 0.018 µM at recombinant BRD4 BD1, 0.04 µM on recombinant BRD4 BD2, 0.141 µM with MDA-MB-436 and 0.136 µM with LNCaP. The Ki on recombinant BRD4 BD1 amounted to 0.0041 µM; on recombinant BRD4 BD2 it was 0.013 µM.

For `COc1c(-c2c(C)noc2C)cc2[nH]c3nc(C)nc(N(C)c4cc(C5CC5)nn4C)c3c2c1F` [Cpd. No. 306, N-(3-cyclopropyl-1-methyl-1H-pyrazol-5-yl)-7-(3,5-dimethylisoxazol-4-yl)-5-fluoro-6-methoxy-N,2-dimethyl-9H-pyrimido[4,5-b]indol-4-amine], the IC50 on recombinant BRD4 BD1 is 0.129 µM; at recombinant BRD4 BD2, 0.043 µM; in the assay with MDA-MB-436, 0.067 µM; with LNCaP it was 0.534 µM. Further, the Ki on recombinant BRD4 BD1 came to 0.03 µM; at recombinant BRD4 BD2, 0.01 µM.

In the case of `COc1cc2c(cc1-c1c(C)noc1C)[nH]c1nc(C)nc(Nc3cc(C4CC4)nn3CC3COCCO3)c12` (centres unmarked) [Cpd. No. 282, N-(1-((1,4-dioxan-2-yl)methyl)-3-cyclopropyl-1H-pyrazol-5-yl)-7-(3,5-dimethylisoxazol-4-yl)-6-methoxy-2-methyl-9H-pyrimido[4,5-b]indol-4-amine], the IC50 at recombinant BRD4 BD1 amounted to 0.0061 µM; on recombinant BRD4 BD2, 0.0005 µM; in the assay on MDA-MB-436 it was 0.033 µM; with LNCaP, 0.022 µM. The inhibition constant Ki on recombinant BRD4 BD1 amounted to 0.0013 µM; at recombinant BRD4 BD2 it was 0.001 µM.

Take `COc1cc2c([nH]c3nc(C)nc(Nc4cc(C5CC5)nn4C)c32)c(F)c1-c1c(C)noc1C` [Cpd. No. 307, N-(3-cyclopropyl-1-methyl-1H-pyrazol-5-yl)-7-(3,5-dimethylisoxazol-4-yl)-8-fluoro-6-methoxy-2-methyl-9H-pyrimido[4,5-b]indol-4-amine]: the IC50 at recombinant BRD4 BD1 came to 0.016 µM; at recombinant BRD4 BD2, 0.018 µM; with MDA-MB-436, 0.13 µM; in the assay with LNCaP, 0.059 µM. For the same molecule, the Ki at recombinant BRD4 BD1 was 0.0038 µM; at recombinant BRD4 BD2, 0.0043 µM.

In the case of `COc1cc2c(cc1-c1c(C)noc1C)[nH]c1cncc(Nc3cc(C4CC4)nn3C)c12` [Cpd. No. 323, N-(3-Cyclopropyl-1-methyl-1H-pyrazol-5-yl)-7-(3,5-dimethylisoxazol-4-yl)-6-methoxy-9H-pyrido[3,4-b]indol-4-amine], the IC50 on recombinant BRD4 BD1 is 0.0118 µM; on recombinant BRD4 BD2 it was 0.0059 µM; with MDA-MB-436, 0.015 µM; with LNCaP, 0.021 µM. Besides, the Ki on recombinant BRD4 BD1 was 0.0016 µM; at recombinant BRD4 BD2, 0.0012 µM.

For the molecule `COCCOCc1nc(Nc2cc(C3CC3)nn2C)c2c(n1)[nH]c1cc(-c3c(C)noc3C)c(OC)cc12` [Cpd. No. 288, N-(3-cyclopropyl-1-methyl-1H-pyrazol-5-yl)-7-(3,5-dimethylisoxazol-4-yl)-6-methoxy-2-((2-methoxyethoxy)methyl)-9H-pyrimido[4,5-b]indol-4-amine], the concentration for half-maximal inhibition (IC50) was determined as 0.0049 µM on recombinant BRD4 BD1, 0.0016 µM at recombinant BRD4 BD2, 0.013 µM in the assay on MDA-MB-436 and 0.037 µM in the assay with LNCaP. Moreover, the Ki on recombinant BRD4 BD1 and on recombinant BRD4 BD2 was below 0.001 µM throughout.

For the molecule `COc1cc2c(cc1-c1c(C)noc1C)[nH]c1nc(N)nc(Nc3cc(C4CC4)nn3C3CC3)c12` [Cpd. No. 291, N4-(1,3-dicyclopropyl-1H-pyrazol-5-yl)-7-(3,5-dimethylisoxazol-4-yl)-6-methoxy-9H-pyrimido[4,5-b]indole-2,4-diamine], the IC50 on recombinant BRD4 BD1 was 0.0052 µM; on recombinant BRD4 BD2, 0.0049 µM; with MDA-MB-436, 0.037 µM; in the assay with LNCaP it was 0.02 µM. In addition, the Ki on recombinant BRD4 BD1 amounted to 0.0015 µM; at recombinant BRD4 BD2, 0.001 µM.

In the case of `COc1cc2c([nH]c3nc(C)nc(N(C)c4cc(C5CC5)nn4C)c32)c(F)c1-c1c(C)noc1C` [Cpd. No. 308, N-(3-cyclopropyl-1-methyl-1H-pyrazol-5-yl)-7-(3,5-dimethylisoxazol-4-yl)-8-fluoro-6-methoxy-N,2-dimethyl-9H-pyrimido[4,5-b]indol-4-amine], the IC50 at recombinant BRD4 BD1 amounted to 0.023 µM; on recombinant BRD4 BD2, 0.025 µM; with MDA-MB-436 it was 0.181 µM; in the assay with LNCaP it was 0.106 µM. Further, the Ki came out at 0.005 µM on recombinant BRD4 BD1 and 0.0053 µM at recombinant BRD4 BD2.

On to `COc1cc2c(cc1-c1c(C)noc1C)[nH]c1nc(C)nc(Nc3cc(C4CC4)nn3C3CCOCC3)c12` [Cpd. No. 283, N-(3-cyclopropyl-1-(tetrahydro-2H-pyran-4-yl)-1H-pyrazol-5-yl)-7-(3,5-dimethylisoxazol-4-yl)-6-methoxy-2-methyl-9H-pyrimido[4,5-b]indol-4-amine], for which the IC50 at recombinant BRD4 BD1 came to 0.0045 µM; at recombinant BRD4 BD2, 0.005 µM; with MDA-MB-436 it was 0.019 µM; in the assay with LNCaP it was 0.012 µM. The Ki on recombinant BRD4 BD1 was 0.0006 µM; on recombinant BRD4 BD2, 0.0009 µM.

`COc1cc2c(cc1-c1c(C)noc1C)[nH]c1nc(C)nc(Nc3cc(C4CC4)nn3CCN3CCOCC3)c12` [Cpd. No. 284, N-(3-cyclopropyl-1-(2-morpholinoethyl)-1H-pyrazol-5-yl)-7-(3,5-dimethylisoxazol-4-yl)-6-methoxy-2-methyl-9H-pyrimido[4,5-b]indol-4-amine]: the half-inhibitory concentration (IC50) on recombinant BRD4 BD1 was determined as 0.01 µM; at recombinant BRD4 BD2, 0.0106 µM; with MDA-MB-436 it was 0.268 µM; in the assay on LNCaP, 0.105 µM. The values for the Ki at recombinant BRD4 BD1 and on recombinant BRD4 BD2 were 0.003 µM and 0.0026 µM, respectively.

For the molecule `COc1c(-c2c(C)noc2C)cc2[nH]c3nc(C)nc(Nc4cc(C5CC5)nn4C)c3c2c1F` [Cpd. No. 305], the IC50 was above 5 µM on recombinant BRD4 BD1, 0.85 µM at recombinant BRD4 BD2, 1.19 µM in the assay with MDA-MB-436 and 1.17 µM with LNCaP. Further, on recombinant BRD4 BD2, the Ki was 0.342 µM.
